In brackets after ≈: the same amount, converted by molar mass. Where two headings read alike, the source gives them in different places.
Legend:
Salmonella choleraesuis = assay: MIC, agar dilution, Salmonella choleraesuis; type: cell-based; conditions: Salmonella enterica, read-out: MIC
Procedure, shortened: (§1)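 Each organism receives an inoculum of approx. 10^3–10^4 CFU, taken from a 5% CO2 BHI subculture standardised to 0.5 McFarland and diluted 1:20. It is spotted on Mueller-Hinton agar containing the compound, then incubated for 16–18 h at 37 °C with CO2.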

Salmonella typhimurium = assay: MIC, agar dilution, Salmonella typhimurium; type: cell-based; conditions: Salmonella enterica, read-out: MIC
Procedure, shortened: as §1

Escherichia coli = assay: MIC, agar dilution, Escherichia coli; type: cell-based; conditions: Escherichia coli, read-out: MIC
Procedure, shortened: as §1

Staphylococcus aureus = assay: MIC, agar dilution, Staphylococcus aureus; type: cell-based; conditions: Staphylococcus aureus, read-out: MIC
Procedure, shortened: as §1

P. hemolytica = assay: Systemic infection model in mice, ED50, P. hemolytica; type: in vivo; conditions: Mus musculus, sc, 144 h, 50% survival six days post infection, per day, read-out: ED50 (95% confidence limits)
Protocol: Experimental Infections and Antitiotic Treatment (for ED50 in mice tests).
Mice are infected and treated with the test antibiotic compound according to procedures described previously [Yancey, Jr., R. J. et at. supra].
The test antibiotic compound is administered subcutaneously immediately following infection, then at 24 hours and 48 hours post infection. The medium effective dose (ED50) number is determined for all infections. The ED50 value is defined as the calculated concentration of the test antibiotic compound in mg. of compound per kilogram of mouse body weight per day at which 50% of the animals survived six days post infection.

[1] = tested on: Streptococcus dysgalactiae; assay: MIC, agar dilution, Streptococcus dysgalactiae; type: cell-based; conditions: Streptococcus dysgalactiae; strain UC251; read-out: MIC
Procedure, shortened: as §1

Streptococcus bovis = assay: MIC, agar dilution, Streptococcus bovis; type: cell-based; conditions: Streptococcus equinus; strain UC6281; read-out: MIC
Procedure, shortened: as §1

Streptococcus uberis = assay: MIC, agar dilution, Streptococcus uberis; type: cell-based; conditions: Streptococcus uberis, read-out: MIC
Procedure, shortened: as §1

Pseudomonas aeruginosa = assay: MIC, agar dilution, Pseudomonas aeruginosa; type: cell-based; conditions: Pseudomonas aeruginosa; strain ATCC27853; read-out: MIC
Procedure, shortened: as §1

Streptococcus agalactiae = assay: MIC, agar dilution, Streptococcus agalactiae; type: cell-based; conditions: Streptococcus agalactiae, read-out: MIC
Procedure, shortened: as §1

Streptococcus suis = assay: MIC, agar dilution, Streptococcus suis; type: cell-based
Procedure, shortened: as §1

Pasteurella multocida = assay: MIC, agar dilution, Pasteurella multocida; type: cell-based; conditions: Pasteurella multocida; strain B77-18; read-out: MIC
Procedure, shortened: as §1

[2] = CHOLERAESUIS / UC6073, strain UC6073
[3] = CHOLERAESUIS / UC6077, strain UC6077
[4] = TYPHIMURIUM / UC6162, strain UC6162
[5] = TYPHIMURIUM / UC6164, strain UC6164
[6] = strain UC6531, subcutaneous, 0, 24, 48 hours post infection
[7] = strain UC6532, lactamase producing, subcutaneous, 0, 24, 48 hours post infection
[8] = Streptococcus suis, strain 538-2, read-out: MIC

Row | Compound | MIC (Salmonella choleraesuis; [2]) | MIC (Salmonella choleraesuis; [3]) | MIC (Salmonella typhimurium; [4]) | MIC (Salmonella typhimurium; [5]) | MIC (Escherichia coli; strain ATCC25922) | MIC (Escherichia coli; strain P75-1) | MIC (Escherichia coli; strain UC3784) | MIC (Escherichia coli; strain UC6720) | MIC (Staphylococcus aureus; strain ATCC25923) | MIC (Staphylococcus aureus; strain UC6093) | MIC (Staphylococcus aureus; strain UC6097) | MIC (Staphylococcus aureus; strain UC6688) | MIC (Staphylococcus aureus; strain UC9201) | ED50 (P. hemolytica; [6]) | ED50 (P. hemolytica; [7]) | MIC [1] | MIC (Streptococcus bovis) | MIC (Streptococcus uberis; strain UC3946) | MIC (Streptococcus uberis; strain UC6159) | MIC (Pseudomonas aeruginosa) | other results
1 | CO/N=C(\C(=O)N[C@@H]1C(=O)N2C(C(=O)O)=C(CS)CS[C@H]12)c1csc(N)n1 [Formula III compound, 3-mercaptomethyl-7β-[2-(2-amino-1,3-thiazol-4-yl)-(Z)-2-(methoxyimino)acetamido]ceph-3-em-4-carboxylic acid] | 2 µg/mL | 1 µg/mL | 0.5 µg/mL | 0.5 µg/mL | 0.5 µg/mL | 0.5 µg/mL | 0.5 µg/mL | 0.5 µg/mL | 16 µg/mL | 16 µg/mL | 16 µg/mL | > 32 µg/mL | 16 µg/mL | 0.8 mg/kg | 0.8 mg/kg | ≤ 0.06 µg/mL | ≤ 0.06 µg/mL | 0.25 µg/mL | 32 µg/mL | > 32 µg/mL | MIC (Streptococcus agalactiae; strain UC3947): ≤ 0.06 µg/mL; MIC (Streptococcus agalactiae; strain UC6892): ≤ 0.06 µg/mL; MIC (Streptococcus suis; [8]): ≤ 0.06 µg/mL; MIC (Streptococcus suis; strain 650-2): ≤ 0.06 µg/mL; MIC (Pasteurella multocida): ≤ 0.06 µg/mL
2 | CO/N=C(\C(=O)N[C@@H]1C(=O)N2C(C(=O)O)=C(CSC(=O)c3ccco3)CS[C@H]12)c1csc(N)n1 [ceftiofur, 7-[2-(amino-1,3-thiazol-4-yl)-2-(methoxyimino)acetamido]-3-[(fur-2-ylcarbonyl)thiomethyl]-3-cephem-4-carboxylic acid, reference compound] | 1 µg/mL (≈ 1.91 µM) | 2 µg/mL (≈ 3.82 µM) | 0.25 µg/mL (≈ 0.477 µM) | 0.25 µg/mL (≈ 0.477 µM) | 0.13 µg/mL (≈ 0.248 µM) | 0.13 µg/mL (≈ 0.248 µM) | 0.13 µg/mL (≈ 0.248 µM) | 0.13 µg/mL (≈ 0.248 µM) | 0.25 µg/mL (≈ 0.477 µM) | 1 µg/mL (≈ 1.91 µM) | 0.5 µg/mL (≈ 0.955 µM) | 32 µg/mL (≈ 61.1 µM) | 1 µg/mL (≈ 1.91 µM) | 0.8 mg/kg | 0.9 mg/kg | ≤ 0.06 µg/mL | ≤ 0.06 µg/mL | ≤ 0.06 µg/mL | 0.25 µg/mL (≈ 0.477 µM) | 32 µg/mL (≈ 61.1 µM) | MIC (Streptococcus agalactiae; strain UC3947): ≤ 0.06 µg/mL; MIC (Streptococcus agalactiae; strain UC6892): ≤ 0.06 µg/mL; MIC (Streptococcus suis; [8]): ≤ 0.06 µg/mL; MIC (Streptococcus suis; strain 650-2): ≤ 0.06 µg/mL; MIC (Pasteurella multocida): ≤ 0.06 µg/mL
3 | CO/N=C(\C(=O)N[C@@H]1C(=O)N2C(C(=O)O)=C(CO)CS[C@H]12)c1csc(N)n1 [desacetyl cefotoxime, 7-[2-(2-amino-1,3-thiazol-4-yl)-(syn)-2-methoxyiminoacetamido]-3-hydroxymethylceph-3-em-4-carboxylic acid, reference compound] | 0.5 µg/mL (≈ 1.21 µM) | 1 µg/mL (≈ 2.42 µM) | 0.13 µg/mL (≈ 0.314 µM) | 0.13 µg/mL (≈ 0.314 µM) | 0.25 µg/mL (≈ 0.605 µM) | 0.25 µg/mL (≈ 0.605 µM) | 0.25 µg/mL (≈ 0.605 µM) | 0.25 µg/mL (≈ 0.605 µM) | 4 µg/mL (≈ 9.67 µM) | 16 µg/mL (≈ 38.7 µM) | 16 µg/mL (≈ 38.7 µM) | > 32 µg/mL | 16 µg/mL (≈ 38.7 µM) | 0.3 mg/kg | 0.6 mg/kg | ≤ 0.06 µg/mL | ≤ 0.06 µg/mL | ≤ 0.06 µg/mL | 16 µg/mL (≈ 38.7 µM) | > 32 µg/mL | MIC (Streptococcus agalactiae; strain UC3947): ≤ 0.6 µg/mL; MIC (Streptococcus agalactiae; strain UC6892): ≤ 0.06 µg/mL; MIC (Streptococcus suis; [8]): ≤ 0.06 µg/mL; MIC (Streptococcus suis; strain 650-2): ≤ 0.06 µg/mL; MIC (Pasteurella multocida): ≤ 0.06 µg/mL

Source: US5134137A, “Cephalosporin antibiotics” (The Upjohn Company, priority 1990, dated 1992)
